# Test results as given in US10561638B2, “Methods for treating dependence” (Biotie Therapies, Inc., priority 2007, dated 2020).
# How the values were obtained:
# [1] = tested on: norepinephrine and dopamine levels; experiment: Cortex and mesenteric artery catecholamines in SHRs after 7 and 25 days; format: in vivo, spontaneous hypertensive rats
# Method: Nepicastat at 1 and 10 mg/kg was prepared in terms of the free base. The weighings were dissolved in vehicle (dH2O) to yield oral doses that could be administered in a volume of 10.0 ml/kg.
# Male spontaneous hypertensive rats (SHRs), 16-17 weeks old at the onset of the study, were used. Animals were allowed food and water ad libitum. Animals were randomly assigned to one of the following treatment groups: oral administration of nepicastat at 10 mg/kg, 1 mg/kg, or a vehicle group of deionized water at 10 ml/kg. Rats were dosed orally once a day for 7 or 25 days with vehicle, 1 mg/kg or 10 mg/kg nepicastat (n=8) except for day 25, where n=9. On day 7, four hours after compound administration, animals were anesthetized with halothane, decapitated and the cortex and mesenteric artery were harvested, weighed, and analyzed from 24 rats (n=8/treatment group). The remaining […] continued receiving oral administration with one of the three treatments for the following 18 days. At 4 hours after the last treatment the mesenteric artery and cortex from this group were harvested, weighed, and analyzed for catecholamine levels.
# Statistically, the three treatments were compared at each time period (7 or 25 days) using a non-parametric one-way analysis of variance (ANOVA). Pairwise comparisons of each treatment with control were performed using Fisher's LSD strategy on the means, adjusted for differences in sample size, to control the experiment-wise error rate. Each variable was analyzed separately. For FIGS. 6-11, *, p<0.05 and **, P<0.01.
# SHRs [2] = experiment: 21 day daily treatment of SHRs, tail cuff and direct blood pressure; format: in vivo, spontaneously hypertensive rats
# [3] = in vivo
# Method: The pharmacokinetics of nepicastat after a single 40 mg dose was compared in men and women.
# [4] = tested on: plasma dopamine/norepinephrine ratio, urinary dopamine; experiment: Plasma and urinary catecholamines in normal volunteers; format: in vivo, human
# Method: Nepicastat reduces the conversion of dopamine to norepinephrine. Basic tests for nepicastat activity measure the levels of plasma or urinary dopamine or the ratio of dopamine to norepinephrine. Nepicastat treatment can increase plasma or urinary levels of dopamine or increase the dopamine/norepinephrine ratio in plasma or urine.
# Shown in FIG. 5, are the levels in urinary dopamine levels in normal volunteers after 24 hour treatment with nepicastat.
# Urinary dopamine levels increased after 10 days of dosing with both 40 mg and 200 mg of nepicastat.
# SHRs [5] = conditions: rat, in vivo
# acetyl CoA synthetase = experiment: Enzyme selectivity assay; format: biochemical
# Method: (§1) The activity of nepicastat at twelve selected enzymes and receptors was determined using established assays. Binding data were analyzed by iterative curve-fitting to a four parameter logistic equation. Ki values were calculated from IC50 values using the Cheng-Prusoff equation. Enzyme inhibitory activity was expressed as IC50 (concentration required to produce 50% inhibition of enzyme activity).
# (§2) The activity of nepicastat at eleven different enzymes was determined using established assays. The affinity of nepicastat for thirteen selected receptors was determined by radioligand binding assays using standard filtration techniques and membrane preparations. Binding data were analyzed by iterative curve fitting to a four parameter logistic equation. Ki values were calculated using the Cheng-Prusoff equation.
# phospholipase A2 = experiment: Enzyme selectivity assay; format: biochemical
# Method: as §1, §2
# tyrosine hydroxylase = tyrosine hydroxylase (Homo sapiens, UniProt P07101); experiment: Enzyme selectivity assay; format: biochemical
# Chain of tyrosine hydroxylase (P07101 whole entry): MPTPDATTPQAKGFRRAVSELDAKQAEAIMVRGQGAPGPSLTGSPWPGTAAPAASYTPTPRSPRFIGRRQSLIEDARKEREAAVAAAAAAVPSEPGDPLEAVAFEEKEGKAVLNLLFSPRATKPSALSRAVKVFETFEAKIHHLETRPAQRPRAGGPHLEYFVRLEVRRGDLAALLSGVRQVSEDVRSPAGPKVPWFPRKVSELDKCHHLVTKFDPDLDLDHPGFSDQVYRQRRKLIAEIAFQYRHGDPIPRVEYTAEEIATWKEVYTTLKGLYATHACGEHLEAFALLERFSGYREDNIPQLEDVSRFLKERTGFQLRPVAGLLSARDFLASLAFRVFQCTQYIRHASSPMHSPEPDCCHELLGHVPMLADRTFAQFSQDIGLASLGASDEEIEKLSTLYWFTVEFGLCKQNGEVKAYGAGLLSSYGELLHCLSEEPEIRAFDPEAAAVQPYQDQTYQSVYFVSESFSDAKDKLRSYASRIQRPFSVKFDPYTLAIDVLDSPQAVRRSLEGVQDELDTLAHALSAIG
# Method: as §1, §2
# [6] = tested on: left ventricle norepinephrine and dopamine levels; experiment: Left ventricle catecholamines after two i.v. doses; format: in vivo, Sprague-Dawley rats; conditions: 15 mg/kg iv x2, left ventricle
# Method: The purpose of this study was to determine the effects of intravenous administration of nepicastat (hereafter referred to as nepicastat) on the levels of dopamine and norepinephrine in the left ventricle in Sprague-Dawley rats. Animals received two intravenous (iv) administrations, 12 hours apart, of either vehicle (75% propylene glycol+25% DMSO; 1.0 ml/kg) or 15 mg/kg of nepicastat. Tissue norepinephrine and dopamine levels were measured six hours after the last compound administration.
# Sixteen to 17 week old male Sprague-Dawley rats, weighing 300-400 grams, were allowed food and water ad libitum. Animals were weighed and randomly assigned, the afternoon before the study, to one of the following treatment groups (n=10 per group): vehicle (1.0 ml/kg) or nepicastat at 15 mg/kg.
# Each rat was dosed iv in the tail vein the afternoon before harvest. The dosing was repeated 12 hours later the following morning. Six hours after the final administration rats were anesthetized with halothane, decapitated, and the left ventricle was rapidly harvested and weighed. The ventricle was placed in 1.0 ml iced 0.4 M perchloric acid. Tissues were immediately frozen in liquid nitrogen and stored at −70° C. Tissue dopamine and norepinephrine concentrations were assayed by high performance liquid chromatography using electrochemical detection.
# A one-way analysis of variance (ANOVA) with a main effect for treatment was performed for norepinephrine. A Kruskal-Wallis was performed for dopamine and their ratio primarily due to heterogeneous variances among treatment groups. Subsequent pairwise comparisons between nepicastat treated rats and vehicle were performed using Fisher's LSD test. A Bonferroni adjustment was performed on all p-values to ensure an overall experiment-wise type 1 error rate of 5%.
# [7] = Toxicity studies in dogs (acute, 1-month); format: in vivo
# Method: Dose selection was based on data from two studies with nepicastat. […] In a 1-month study, doses of 5, 20, or 80 mg/kg were administered to dogs orally once daily.
# anesthetized beagle dogs = experiment: Sympathetically-evoked responses in dogs after 4.5 days dosing; format: in vivo; conditions: 10 mg/kg/d for 4.5 days
# thyroid uptake of 123I = experiment: Thyroid uptake of 123I in humans; format: in vivo, human
# [8] = cerebral cortex, 7 days, 10 mg/kg
# [9] = mesenteric artery, 7 and 25 days, 10 mg/kg
compound,measurement,setting,value
"Cl.NCc1c[nH]c(=S)n1[C@H]1CCc2c(F)cc(F)cc2C1 [nepicastat, (S)-5-Aminomethyl-1-(5,7-difluoro-1,2,3,4-tetrahydronaphth-2-yl)-2,3-dihydro-2-thioxo-1H-imidazole hydrochloride]",norepinephrine levels and dopamine/norepinephrine ratio vs vehicle,"[1]; cerebral cortex, 7 days, 1 mg/kg",no significant (p>0.05) differences
same,dopamine/norepinephrine ratio vs vehicle,[1]; [8],significantly (p<0.05) higher
same,norepinephrine levels vs vehicle,[1]; [8],significantly (p<0.1) lower
same,dopamine levels vs vehicle,"[1]; cerebral cortex, 7 days, 1 or 10 mg/kg",no significant (p>0.05) differences
same,dopamine levels vs vehicle,"[1]; cortex, 25 days, 1 mg/kg",significantly (p<0.05) higher
same,dopamine/norepinephrine ratio vs vehicle,"[1]; cortex, 25 days, 1 mg/kg",significantly (p<0.01) greater
same,dopamine/norepinephrine ratio vs vehicle,"[1]; cortex, 25 days, 10 mg/kg",significantly greater (p<0.05)
same,norepinephrine levels vs control,"[1]; cortex, 25 days, either dose",not significantly (p.>0.05) different
same,all parameters vs control,"[1]; mesenteric artery, 1 mg/kg",None of the parameters measured were significantly (p<0.05) different
same,dopamine levels and dopamine/norepinephrine ratios vs vehicle,[1]; [9],significantly higher dopamine levels and dopamine/norepinephrine ratios
same,norepinephrine levels vs vehicle,[1]; [9],no differences in norepinephrine levels
same,"blood pressure measured directly via arterial cannulae, restrained",SHRs [2]; 10 mg/kg p.o.,significant antihypertensive effect
same,heart rate and systolic blood pressure by tail cuff,"SHRs [2]; 1 and 10 mg/kg p.o., 21 days","did not alter heart rate, or systolic blood pressure"
same,"AUC, greater in women than in men","[3]; both, human, 40 mg",approximately 43%
same,"Cmax, greater in women than in men","[3]; both, human, 40 mg",approximately 23%
same,Tmax for the radioactivity in plasma,[3]; human,1 to 2 h
same,terminal T1/2 for total radioactivity in plasma,[3]; human,~100 h
same,"Cmax or AUC, fast vs slow acetylator phenotype",[3],No significant differences
same,"T½, women vs men",[3],longer in women than in men
same,accumulation with multiple dosing,[3],no significant accumulation
same,urinary dopamine levels,"[4]; 40 mg and 200 mg, after 10 days of dosing",increased
same,mean supine plasma dopamine/norepinephrine ratio vs placebo,[4]; 200 mg,significant increase
same,motor activity (MA),SHRs [5],unaffected
same,IC50,acetyl CoA synthetase,> 10 µM
same,IC50,phospholipase A2,> 10 µM
same,IC50,tyrosine hydroxylase,> 10 µM
same,decrease in norepinephrine levels,[6],51%
same,increase in dopamine levels,[6],472%
same,increase in dopamine/norepinephrine ratio,[6],1117%
same,1-month toxicity,[7]; 80 mg/kg/day orally once daily,Clinical signs of toxicity were present
same,acute toxicity,[7]; single oral dose of 400 mg/kg,transient clinical signs of toxicity
same,blood pressure and heart rate increases in response to carotid artery occlusion,anesthetized beagle dogs,no statistically significant decrease
same,blood pressure response to i.v. tyramine challenge,anesthetized beagle dogs,only slight and non-significant inhibition
same,heart rate response to i.v. tyramine challenge,anesthetized beagle dogs,significantly reduced the increase in heart rate
same,thyroid uptake of 123I vs placebo,"thyroid uptake of 123I; 5, 40 and 100 mg",no differences from placebo
same,reduction of thyroid uptake of 123I vs placebo,thyroid uptake of 123I; single 200 mg dose,significantly greater than placebo
